Measurements reported in patent US11066414B2, “Cot modulators and methods of use thereof” (Gilead Sciences, Inc., priority 2015, dated 2021).
Where two headings read alike, the source gives them in different places.

Experiments:
[1] = tested on: TNFα; experiment: Cot Monocyte TNFα Cell Based Assay
[2] = target: Human Cot (Homo sapiens (Human), UniProt P41279); experiment: High Throughput Cot Biochemical Assay
[3] = Homo sapiens, Monocyte, read-out: EC50 TNF, LPS-stimulated human monocytes, TNFα
[4] = IC50 HTRF, Cot HTRF (TR-FRET) biochemical assay

Chain of Human Cot (P41279 30-397): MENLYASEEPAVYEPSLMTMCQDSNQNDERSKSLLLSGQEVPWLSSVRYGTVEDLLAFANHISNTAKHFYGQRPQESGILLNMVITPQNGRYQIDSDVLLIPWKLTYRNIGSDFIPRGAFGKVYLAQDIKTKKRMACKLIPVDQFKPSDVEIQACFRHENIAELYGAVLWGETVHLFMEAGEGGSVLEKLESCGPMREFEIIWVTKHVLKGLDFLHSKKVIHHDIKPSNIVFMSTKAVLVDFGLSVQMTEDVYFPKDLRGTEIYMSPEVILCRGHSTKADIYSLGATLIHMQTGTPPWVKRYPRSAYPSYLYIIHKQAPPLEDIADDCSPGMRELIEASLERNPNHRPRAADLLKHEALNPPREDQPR

## Cc1nc([C@H](Nc2cc(Cl)c3ncc(C#N)c(Nc4ccc(F)c(Cl)c4)c3c2)c2cn(C3CCN(C(C)(C)C)CC3)nn2)c(C)o1 [Example 262, (S)-6-(((1-(1-(tert-butyl)piperidin-4-yl)-1H-1,2,3-triazol-4-yl)(2,5-dimethyloxazol-4-yl)methyl)amino)-8-chloro-4-((3-chloro-4-fluorophenyl)amino)quinoline-3-carbonitrile]
[1]; [3]
  EC50: 130 nM
[2]; [4]
  IC50: 11 nM

## N#Cc1cnc2c(Cl)cc(N[C@@H](c3cccnc3)c3c[nH]nn3)cc2c1Nc1ccc(Cl)c(Cl)c1F [Example 256, (S)-8-chloro-4-((3,4-dichloro-2-fluorophenyl)amino)-6-((pyridin-3-yl(1H-1,2,3-triazol-4-yl)methyl)-amino)quinoline-3-carbonitrile]
[1]; [3]
  EC50: 341 nM
[2]; [4]
  IC50: 16 nM

## Cc1nc(F)ccc1[C@H](Nc1cc(Cl)c2ncc(C#N)c(NC3CCOC3(C)C)c2c1)c1cn(C2(C(F)F)CC2)nn1 (stereo partly drawn) [Example 511, 8-chloro-6-(((S)-(1-(1-(difluoromethyl)-cyclopropyl)-1H-1,2,3-triazol-4-yl)(6-fluoro-2-methylpyridin-3-yl)methyl)amino)-4-((2,2-dimethyltetrahydrofuran-3-yl)amino)-quinoline-3-carbonitrile]
[1]; [3]
  EC50: 133 nM
[2]; [4]
  IC50: 6 nM

## CC(C)(C)CNc1c(C#N)cnc2c(C#N)cc(N[C@H](c3cn(C4(C(F)(F)F)CC4)nn3)c3cccn4nccc34)cc12 [Example 572, (S)-4-(neopentylamino)-6-((pyrazolo[1,5-a]pyridin-4-yl(1-(1-(trifluoromethyl)cyclo-propyl)-1H-1,2,3-triazol-4-yl)methyl)amino)quinoline-3,8-dicarbonitrile]
[1]; [3]
  EC50: 79 nM
[2]; [4]
  IC50: 4 nM

## COc1nccc2c([C@H](Nc3cc(Cl)c4ncc(C#N)c(NCC(C)(C)C(F)(F)F)c4c3)c3cn(C4(C(F)F)CC4)nn3)cccc12 [Example 934, (S)-8-chloro-6-(((1-(1-(difluoromethyl)cyclopropyl)-1H-1,2,3-triazol-4-yl)(1-methoxylsoquinolin-5-yl)methyl)amino)-4-((3,3,3-trifluoro-2,2-dimethylpropyl)amino)quinoline-3-carbonitrile]
[1]; read-out: EC50 TNF, LPS-stimulated human monocytes, TNFα TR-FRET
  EC50: 81 nM
[2]; read-out: IC50 HTRF, Cot HTRF (TR-FRET KinEASE) biochemical assay, 400 μM ATP
  IC50: 7 nM

## Cn1ccc2c([C@H](Nc3cc(Cl)c4ncc(C#N)c(NCC(C)(C)C)c4c3)c3cn(C4CC4)nn3)cccc2c1=O [Example 745, (S)-8-chloro-6-(((1-cyclopropyl-1H-1,2,3-triazol-4-yl)(2-methyl-1-oxo-1,2-dihydroisoquinolin-5-yl)methyl)amino)-4-(neopentylamino)quinoline-3-carbonitrile]
[1]; [3]
  EC50: 28 nM
[2]; [4]
  IC50: 2 nM

## CC(C)(C)CNc1c(C#N)cnc2c(Cl)cc(N[C@H](c3cn(C4CC4)nn3)c3cccc4cccnc34)cc12 [Example 450, (S)-8-chloro-6-(((1-cyclopropyl-1H-1,2,3-triazol-4-yl)(quinolin-8-yl)methyl)amino)-4-(neopentylamino)quinoline-3-carbonitrile]
[1]; [3]
  EC50: 356 nM
[2]; [4]
  IC50: 20 nM

## CC(C)(C)CNc1c(C#N)cnc2c(Cl)cc(N[C@H](c3cn(C(C)(C)CF)nn3)c3cccc4ncccc34)cc12 [Example 694, (S)-8-chloro-6-(((1-(1-fluoro-2-methylpropan-2-yl)-1H-1,2,3-triazol-4-yl)(quinolin-5-yl)methyl)amino)-4-(neopentylamino)quinoline-3-carbonitrile]
[1]; [3]
  EC50: 84 nM
[2]; [4]
  IC50: 7 nM

## CN(C)CCCn1cc([C@@H](Nc2cc(Cl)c3ncc(C#N)c(Nc4ccc(F)c(Cl)c4)c3c2)c2cscn2)nn1 [Example 360, (S)-8-chloro-4-((3-chloro-4-fluorophenyl)amino)-6-(((1-(3-(dimethylamino)propyl)-1H-1,2,3-triazol-4-yl)(thiazol-4-yl)methyl)-amino)quinoline-3-carbonitrile]
[1]; [3]
  EC50: 151 nM
[2]; [4]
  IC50: 4 nM
